Activity calls are given as the source filed them. The calls are words filed in the database; no cut-off is given here.
Columns and labels:
[1] = biological target: T1, Protein mono-ADP-ribosyltransferase TIPARP (Mus musculus) (UniProt Q8C1B2); assay: Inhibition of PARP7 in mouse CT26 cells assessed as increase in IFN-beta levels at 49 to 4000 nmol/L measured after 48 hrs by RT-qPCR analysis; format: cell-based; conditions: dose lower […], dose upper 4000.0 nmol/L
T1 sequence (whole entry): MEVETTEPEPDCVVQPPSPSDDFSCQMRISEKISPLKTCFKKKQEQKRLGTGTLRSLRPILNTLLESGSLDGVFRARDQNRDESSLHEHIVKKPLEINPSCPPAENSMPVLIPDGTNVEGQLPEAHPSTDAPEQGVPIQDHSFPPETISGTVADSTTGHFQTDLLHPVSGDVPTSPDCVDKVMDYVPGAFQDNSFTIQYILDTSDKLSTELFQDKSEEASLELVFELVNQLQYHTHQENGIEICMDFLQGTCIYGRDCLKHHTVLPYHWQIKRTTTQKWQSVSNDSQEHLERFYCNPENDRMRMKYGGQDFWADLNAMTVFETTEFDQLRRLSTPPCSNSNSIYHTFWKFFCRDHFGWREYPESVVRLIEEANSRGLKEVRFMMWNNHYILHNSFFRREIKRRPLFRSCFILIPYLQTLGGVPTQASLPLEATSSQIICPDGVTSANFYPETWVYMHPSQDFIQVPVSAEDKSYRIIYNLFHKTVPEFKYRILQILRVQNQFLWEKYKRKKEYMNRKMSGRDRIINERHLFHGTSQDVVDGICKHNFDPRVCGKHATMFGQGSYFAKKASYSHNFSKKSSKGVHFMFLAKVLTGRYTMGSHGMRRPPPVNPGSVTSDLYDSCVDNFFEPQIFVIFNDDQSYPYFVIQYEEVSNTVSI

[2] = Oral bioavailability in ICR mouse at 10 mg/kg measured upto 24 hrs by LC-MS/MS analysis; format: ADME, organism-based; conditions: in vivo
CT26 [3] = assay: Antitumor activity against mouse CT26 cells implanted in po dosed BALB/c mouse assessed as increase in PARP7 levels at 50 to 100 mg/kg measured after 14 days by RT-qPCR analysis; format: functional, organism-based; conditions: dose 50-100 mg/kg, time 14.0 day
[4] = biological target: T2, Protein mono-ADP-ribosyltransferase TIPARP (Homo sapiens, UniProt Q7Z3E1); assay: Inhibition of human recombinant N-terminal FLAG tagged PARP7 (400 to 657 end residues) incubated for 1 hr by ELISA assay
T2 sequence (Q7Z3E1 whole entry): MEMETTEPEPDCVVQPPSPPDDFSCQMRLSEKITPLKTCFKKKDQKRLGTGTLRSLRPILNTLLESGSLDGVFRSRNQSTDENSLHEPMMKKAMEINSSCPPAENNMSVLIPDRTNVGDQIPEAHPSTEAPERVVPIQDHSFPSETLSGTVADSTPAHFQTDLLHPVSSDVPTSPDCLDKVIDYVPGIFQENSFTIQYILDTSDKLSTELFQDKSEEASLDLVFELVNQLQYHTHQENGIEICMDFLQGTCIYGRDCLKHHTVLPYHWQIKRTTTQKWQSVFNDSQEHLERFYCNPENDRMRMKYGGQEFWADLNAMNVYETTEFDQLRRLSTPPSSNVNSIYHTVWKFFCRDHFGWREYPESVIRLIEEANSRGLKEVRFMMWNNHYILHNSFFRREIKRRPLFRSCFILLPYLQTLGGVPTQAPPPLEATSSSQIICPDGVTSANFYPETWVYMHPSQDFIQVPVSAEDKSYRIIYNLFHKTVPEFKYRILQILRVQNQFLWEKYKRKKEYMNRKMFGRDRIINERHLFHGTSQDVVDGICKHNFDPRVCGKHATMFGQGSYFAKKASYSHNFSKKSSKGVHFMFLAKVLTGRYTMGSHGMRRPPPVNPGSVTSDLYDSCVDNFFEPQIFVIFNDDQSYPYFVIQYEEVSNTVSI

[5] = biological target: Protein mono-ADP-ribosyltransferase PARP14 (Homo sapiens, UniProt Q460N5); assay: Inhibition of human recombinant N-terminal 6his-tagged / GST-tagged PARP14 (1470 to 1801 end residues) expressed in baculovirus infected Sf9 cells expression system incubated for 1 hr by ELISA assay
CT26 [6] = assay: cells; conditions: Mus musculus, CT26, 144 h
[7] = Apparent volume of distribution in ICR mouse at 1 mg/kg, iv measured upto 24 hrs by LC-MS/MS analysis; format: ADME, organism-based; conditions: in vivo, read-out: Vz
[8] = Toxicity in BALB/c mouse implanted with mouse CT26 cells assessed as kidney damage at 100 mg/kg, po measured for 14 days by hematoxylin and eosin staining based fluorescence microscopic analysis; format: organism-based; conditions: in vivo, 336 h, time 14 day
[9] = biological target: T1, Protein mono-ADP-ribosyltransferase TIPARP (Mus musculus); assay: Inhibition of PARP7 in mouse CT26 cells assessed as increase in […] levels at 49 to 4000 nmol/L measured after 48 hrs by RT-qPCR analysis; format: cell-based; conditions: dose lower […], dose upper 4000.0 nmol/L
[10] = Toxicity in BALB/c mouse implanted with mouse CT26 cells assessed as liver damage at 100 mg/kg, po measured for 14 days by hematoxylin and eosin staining based fluorescence microscopic analysis; format: organism-based; conditions: in vivo, 336 h, time 14 day
[11] = Tmax in ICR mouse at 1 mg/kg, iv measured upto 24 hrs by LC-MS/MS analysis; format: ADME, organism-based; conditions: in vivo
CT26 [12] = assay: Antitumor activity against mouse CT26 cells implanted in po dosed BALB/c mouse assessed as increase in IFN-beta levels measured after 14 days by RT-qPCR analysis; format: functional, organism-based; conditions: dose 25-100 mg/kg, time 14.0 day
[13] = MRT(0 to infinity) in ICR mouse at 10 mg/kg, po measured upto 24 hrs by LC-MS/MS analysis; format: ADME, organism-based; conditions: in vivo

Sequence of Protein mono-ADP-ribosyltransferase PARP14 (Q460N5 whole entry): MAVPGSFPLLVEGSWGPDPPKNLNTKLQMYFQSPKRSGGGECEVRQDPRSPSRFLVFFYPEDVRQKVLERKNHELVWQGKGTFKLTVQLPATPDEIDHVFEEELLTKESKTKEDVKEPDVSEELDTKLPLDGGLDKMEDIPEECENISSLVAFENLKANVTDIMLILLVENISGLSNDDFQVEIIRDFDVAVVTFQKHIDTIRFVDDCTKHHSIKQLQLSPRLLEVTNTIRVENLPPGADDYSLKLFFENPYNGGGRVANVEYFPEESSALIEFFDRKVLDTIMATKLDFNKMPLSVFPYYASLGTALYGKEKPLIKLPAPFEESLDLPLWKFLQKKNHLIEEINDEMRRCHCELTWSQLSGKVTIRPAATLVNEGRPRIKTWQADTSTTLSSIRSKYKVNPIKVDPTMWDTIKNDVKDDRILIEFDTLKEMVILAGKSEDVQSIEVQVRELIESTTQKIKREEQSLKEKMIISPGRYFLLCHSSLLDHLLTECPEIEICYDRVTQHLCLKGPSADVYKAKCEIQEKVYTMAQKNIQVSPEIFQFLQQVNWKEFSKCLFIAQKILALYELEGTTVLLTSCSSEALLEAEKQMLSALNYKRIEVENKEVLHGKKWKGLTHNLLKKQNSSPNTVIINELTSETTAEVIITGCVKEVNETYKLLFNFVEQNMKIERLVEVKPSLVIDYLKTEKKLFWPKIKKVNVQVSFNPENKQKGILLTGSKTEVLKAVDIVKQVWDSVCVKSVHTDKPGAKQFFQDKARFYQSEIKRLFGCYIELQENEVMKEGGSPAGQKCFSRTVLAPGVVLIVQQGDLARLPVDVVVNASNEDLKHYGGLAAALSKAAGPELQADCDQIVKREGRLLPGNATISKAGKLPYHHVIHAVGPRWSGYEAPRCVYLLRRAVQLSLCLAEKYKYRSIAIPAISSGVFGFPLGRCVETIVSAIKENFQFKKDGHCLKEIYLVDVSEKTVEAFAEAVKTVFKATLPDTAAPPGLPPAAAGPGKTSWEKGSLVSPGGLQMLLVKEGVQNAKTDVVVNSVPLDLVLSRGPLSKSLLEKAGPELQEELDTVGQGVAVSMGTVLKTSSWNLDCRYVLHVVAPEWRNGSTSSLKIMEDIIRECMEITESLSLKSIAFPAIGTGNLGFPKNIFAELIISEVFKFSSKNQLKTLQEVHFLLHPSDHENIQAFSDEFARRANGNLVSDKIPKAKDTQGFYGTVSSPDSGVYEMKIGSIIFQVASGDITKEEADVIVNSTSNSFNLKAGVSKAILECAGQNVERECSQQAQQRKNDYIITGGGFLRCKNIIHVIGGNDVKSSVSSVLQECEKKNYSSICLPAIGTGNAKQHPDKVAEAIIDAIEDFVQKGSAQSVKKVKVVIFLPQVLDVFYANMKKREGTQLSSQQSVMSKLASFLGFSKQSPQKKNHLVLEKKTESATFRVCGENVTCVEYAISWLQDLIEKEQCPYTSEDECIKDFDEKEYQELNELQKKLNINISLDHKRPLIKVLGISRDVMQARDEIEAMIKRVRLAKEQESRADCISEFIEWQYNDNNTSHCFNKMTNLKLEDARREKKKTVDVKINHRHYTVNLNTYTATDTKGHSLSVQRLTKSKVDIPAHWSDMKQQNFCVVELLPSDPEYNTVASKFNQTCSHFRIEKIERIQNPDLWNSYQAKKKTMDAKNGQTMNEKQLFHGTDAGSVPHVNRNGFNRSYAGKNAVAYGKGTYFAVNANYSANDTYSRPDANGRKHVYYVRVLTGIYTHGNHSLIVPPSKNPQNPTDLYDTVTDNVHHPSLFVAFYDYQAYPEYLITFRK

inhibition [1]: Active
bioavailability [2]: 95.8%
IC50 [4]: 0.0076 µM
IC50 [5]: 2.17 µM
IC50 (CT26 [6]): 12.8 µM
Vd [7]: 3.66 L/kg
inhibition [9]: Active
Tmax [11]: 4.8 min
MRT inf [13]: 1.97 h
Structure (SMILES): C[C@@H](CN1CC(C(=O)N2CCN(c3ncc(C(F)(F)F)cn3)CC2)C1)Nc1cn[nH]c(=O)c1C(F)(F)F
Activity (CT26 [3]): inactive
Activity [8]: Non-Toxic
Activity [10]: Non-Toxic
Activity (CT26 [12]): Dose-Dependent Effect
